For 53 compounds, EC50 results are on record in patent US10682319B2, “Necrosis inhibitors” (National Institute of Biological Sciences, Beijing, priority 2014, dated 2020).

The test system of the test is HT-29 cells. As to the kind of experiment: Necrosis assay (TNF-α/Smac mimetic/z-VAD induced necrosis, cell viability by ATP level). It is filed as cell-based. The settings on record: HT-29, TNF-α + Smac mimetic + z-VAD, 24 hrs, ATP level, read-out: EC50 (inhibition of necrosis in HT-29 cells). Here is the method: HT-29 cells were cultured in McCoy's 5 A culture medium (Invitrogen). On day one, HT-29 cells were plated in 96-well assay plates at density of 2,500-3,500 cells per well. On day two, necrosis were induced by adding 20 ng/ml TNF-α (T), 100 nM Smac mimetic (S), and […] z-VAD (Z). At the same time, […] compound from a chemical library of ˜200,000 compounds was delivered into each well. After 24 hrs treatment, cell viability was determined by measuring ATP level using the CellTiter-Glo Luminescent Cell Viability Assay kit. A CellTiter-Glo Assay (Promega) was performed according to the manufacturer's instructions Luminescence was recorded with a PerkinElmer EnSpire Multimode Plate Reader. Survived cells were normalized to those cells treated with DMSO. Nec-1 was used as a positive control for screening necrosis inhibitors. Data are represented as mean±standard deviation of duplicates
Dose-dependent inhibition of necrosis by the compounds in HT-29 cells were determined by measuring ATP levels as described above.

Where [1] appears, read: Homo sapiens, HT-29, 24 h, values given as ranges in uM.

Where two headings read alike, the source gives them in different places.

As for `CCC(C)(C)C(=O)N(C)Cc1cc(C)c(C)s1` [Compound 128, N-((4,5-dimethylthiophen-2-yl)methyl)-N,2,2-trimethylbutanamide], the EC50 (values given as ranges in nM) fell in the range of 1 to 1000 nM.

For `CCC(C)(C)C(=O)N(C)Cc1cccc(Br)c1` [Compound 19, N-(3-bromobenzyl)-N,2,2-trimethylbutanamide], the EC50 under setting [1] was 1000 to 10000 nM. On the same count and under the same terms, under `CN(Cc1ccccc1F)C(=O)C1CC1` [Compound 62, N-(2-fluorobenzyl)-N-methylcyclopropanecarboxamide] stands 1000 to 100000 nM.

For `CCN(Cc1cc(F)cc(F)c1F)C(=O)C1CCCCC1` [Compound 74, N-ethyl-N-(2,3,5-trifluorobenzyl)cyclohexanecarboxamide], under setting [1], the 50% effective concentration (EC50) lay in the range of 1000 to 100000 nM. In the case of `CCC(C)(C)C(=O)N(C)Cc1cccc(F)c1F` [Compound S8, N-(2,3-difluorobenzyl)-N,2,2-trimethylbutanamide], the half-maximal effective concentration (EC50) (values given as ranges in nM) was in the range of 1 to 1000 nM.

For `CCC(C)(C)C(=O)N(C)Cc1ccc2ccccc2c1` [Compound 46, N,2,2-trimethyl-N-(naphthalen-2-ylmethyl)butanamide], the half-maximal effective concentration (EC50) under setting [1] lay within 1000 to 100000 nM. In the case of `CN(Cc1cc(F)c(F)c(F)c1)C(=O)c1c(Cl)cccc1Cl` [Compound 129, 2,6-dichloro-N-methyl-N-(3,4,5-trifluorobenzyl)benzamide], the concentration giving a half-maximal response (EC50) under setting [1] fell in the range of 1000 to 100000 nM. On the same count and under the same terms, under `C#CCN(Cc1ccccc1F)C(=O)C(C)(C)CC` [Compound 11, N-(2-fluorobenzyl)-2,2-dimethyl-N-(prop-2-yn-1-yl)butanamide] stands 1000 to 10000 nM. On the same count and under the same terms, under `CCC(C)(C)C(=O)N(O)Cc1cccn1C` [Compound 143] stands 1000 to 100000 nM. Regarding `CCC(C)(C)C(=O)N(Cc1ccccc1)OC` [Compound S4, N-benzyl-N-methoxy-2,2-dimethylbutanamide], where the note is “values given as ranges in nM”, the EC50 was 1 to 1000 nM. Take `CCC(C)(C)C(=O)N(C)[C@@H](CO)c1ccccc1F` [Compound 148]: the concentration for a half-maximal effect (EC50) under setting [1] lay within 1000 to 100000 nM. On the same count and under the same terms, under `CCC(C)(C)C(=O)N(C)Cc1cnc(C)s1` [Compound 44, N,2,2-trimethyl-N-((2-methylthiazol-5-yl)methyl)butanamide] stands 1000 to 10000 nM.

Take `CCC(C)(C)C(=O)N(C)Cc1ccc(OC)cc1F` [Compound 28, N-(2-fluoro-4-methoxybenzyl)-N,2,2-trimethylbutanamide]: the EC50 (values given as ranges in nM) fell in the range of 1 to 1000 nM. Take `CCC(C)(C)C(=O)NCc1ccccc1F` [Compound 1, N-(2-fluorobenzyl)-2,2-dimethylbutanamide]: the EC50 under setting [1] was in the range of 1000 to 10000 nM. On the same count and under the same terms, as for `CC(F)(F)C(C)(C)C(=O)N(O)Cc1ccc(F)c(F)c1` [Compound S11], the figure is 1000 to 100000 nM. Same read-out and setting: as for `CCC(C)(CC)C(=O)NCc1cc(F)cc(F)c1F` [Compound 73, 2-ethyl-2-methyl-N-(2,3,5-trifluorobenzyl)butanamide], the figure is 1000 to 10000 nM; as for `CCC(C)(C)C(=O)N(O)CC1=CCCC1` [Compound 140], 1000 to 100000 nM; as for `CCC(C)(C)C(=O)NC1(c2ccccc2)CC1` [Compound 54, 2,2-dimethyl-N-(1-phenylcyclopropyl)butanamide], 1000 to 100000 nM. On the same count and under the same terms, under `CCC(C)(C)C(=O)N(O)CC1CCCCC1` [Compound 141] stands 1000 to 100000 nM. Take `CN(Cc1cc(F)c(F)c(F)c1)C(=O)C(C)(C)C` [Compound 69, N-methyl-N-(3,4,5-trifluorobenzyl)pivalamide]: under setting [1], the concentration for a half-maximal effect (EC50) fell in the range of 1000 to 10000 nM. For `CCC(C)(C)C(=O)N(C)Cc1ccc(C)s1` [Compound 42, N,2,2-trimethyl-N-((5-methylthiophen-2-yl)methyl)butanamide], where the note is “values given as ranges in nM”, the concentration giving a half-maximal response (EC50) is 1 to 1000 nM. For the compound `CCC(C)(C)C(=O)N(O)Cc1ccc(C)s1` [Compound 137], the 50% effective concentration (EC50) under setting [1] was in the range of 1000 to 100000 nM.

On to `CCC(C)(C)C(=O)N(C)Cc1ccc(F)c(F)c1F` [Compound 49, N,2,2-trimethyl-N-(2,3,4-trifluorobenzyl)butanamide], for which the 50% effective concentration (EC50) (values given as ranges in nM) was in the range of 1 to 1000 nM. Still for that read-out and setting: under `CCC(C)(C)C(=O)N(C)Cc1ccccc1F` [Compound 13, N-(2-fluorobenzyl)-N,2,2-trimethylbutanamide] stands 1 to 1000 nM. Consider `CC1CCCN(C(=O)N(C)Cc2cc(F)cc(F)c2F)C1` (centres unmarked) [Compound 118, N,3-dimethyl-N-(2,3,5-trifluorobenzyl)piperidine-1-carboxamide], for which the concentration giving a half-maximal response (EC50) under setting [1] lay within 1000 to 100000 nM.

Consider `CN(Cc1cc(F)cc(F)c1F)C(=O)C(C)(C)C(C)(F)F` [Compound S5, 3,3-difluoro-N,2,2-trimethyl-N-(2,3,5-trifluorobenzyl)butanamide], for which the concentration for a half-maximal effect (EC50) (values given as ranges in nM) was in the range of 1 to 1000 nM. Turning to `CCC(C)(C)C(=O)NCc1ccccc1C(F)(F)F` [Compound 4, 2,2-dimethyl-N-(2-(trifluoromethyl)benzyl)butanamide], under setting [1], the EC50 fell in the range of 1000 to 10000 nM. For `CN(Cc1cc(F)cc(F)c1F)C(=O)C1(C(F)(F)F)CCC1` [Compound 84, N-methyl-N-(2,3,5-trifluorobenzyl)-1-(trifluoromethyl)cyclobutanecarboxamide], the EC50 (values given as ranges in nM) fell in the range of 1 to 1000 nM. On to `CCC(C)(C)C(=O)N(O)Cc1cn(C)cc1C` [Compound 144], for which the EC50 under setting [1] lay within 1000 to 100000 nM. Still for that read-out and setting: as for `CCC(C)(C)C(=O)N(C)Cc1c(F)c(F)cc(F)c1F` [Compound 51, N,2,2-trimethyl-N-(2,3,5,6-tetrafluorobenzyl)butanamide], the figure is 1000 to 10000 nM; as for `CCC(C)(C)C(=O)N(C)Cc1ccc(OC)nc1` [Compound 38, N-((6-methoxypyridin-3-yl)methyl)-N,2,2-trimethylbutanamide], 1000 to 100000 nM.

As to `CCC(C)(C)C(=O)N[C@@H](CC(=O)NCCOc1ccccc1)c1ccccc1` [Compound 126, (S)-2,2-dimethyl-N-(3-oxo-3-((2-phenoxyethyl)amino)-1-phenylpropyl)butanamide], the concentration giving a half-maximal response (EC50) under setting [1] fell in the range of 1000 to 100000 nM. On the same count and under the same terms, as for `CCC(C)(C)C(=O)N(C)Cc1ccc(N2CCCCC2)c([N+](=O)[O-])c1` [Compound 30, N,2,2-trimethyl-N-(3-nitro-4-(piperidin-1-yl)benzyl)butanamide], the figure is 1000 to 100000 nM; as for `CCC(C)(C)C(=O)N[C@@H](CC(=O)NC1CCCCC1)c1ccccc1` [Compound 104, (S)—N-(3-(cyclohexylamino)-3-oxo-1-phenylpropyl)-2,2-dimethylbutanamide], 1000 to 100000 nM.

Take `CC1CCCCN1C(=O)N(C)Cc1cc(F)cc(F)c1F` (centres unmarked) [Compound 117, N,2-dimethyl-N-(2,3,5-trifluorobenzyl)piperidine-1-carboxamide]: the EC50 under setting [1] fell in the range of 1000 to 10000 nM. Same read-out and setting: under `CCC(C)(C)C(=O)NC(CO)c1ccccc1` (centres unmarked) [Compound 110, N-(2-hydroxy-1-phenylethyl)-2,2-dimethylbutanamide] stands 1000 to 100000 nM. Take `CN(Cc1cc(F)cc(F)c1F)C(=O)C1(C)CCCCC1` [Compound 65, N,1-dimethyl-N-(2,3,5-trifluorobenzyl)cyclohexanecarboxamide]: the concentration for a half-maximal effect (EC50) (values given as ranges in nM) lay in the range of 1 to 1000 nM.

Regarding `CCC(C)(C)C(=O)N(C)Cc1ccc(F)cc1` [Compound S7, N-(4-fluorobenzyl)-N,2,2-trimethylbutanamide], the EC50 under setting [1] lay within 1000 to 10000 nM. The same measure, in the same setting: as for `CCC(C)(C)C(=O)N(O)CC1CCCO1` (centres unmarked) [Compound 142], the figure is 1000 to 100000 nM. Same read-out and setting: under `CCC1(C(=O)N(C)Cc2cc(F)c(F)c(F)c2)CCCC1` [Compound 89, 1-ethyl-N-methyl-N-(3,4,5-trifluorobenzyl)cyclopentanecarboxamide] stands 1000 to 10000 nM; under `C=CC(C)(C)C(=O)N(O)Cc1sc(C)cc1C` [Compound 146], 1000 to 100000 nM. For the compound `CCC(C)(C)C(=O)N(C)Cc1cc(F)cc(F)c1` [Compound 26, N-(3,5-difluorobenzyl)-N,2,2-trimethylbutanamide], the 50% effective concentration (EC50) (values given as ranges in nM) is 1 to 1000 nM.

As to `CCC(C)(C)C(=O)NCc1cccnc1` [Compound 9, 2,2-dimethyl-N-(pyridin-3-ylmethyl)butanamide], under setting [1], the half-maximal effective concentration (EC50) lay in the range of 1000 to 10000 nM. As for `CC1CCCC(C)N1C(=O)N(C)Cc1cc(F)cc(F)c1F` (centres unmarked) [Compound 121, N,2,6-trimethyl-N-(2,3,5-trifluorobenzyl)piperidine-1-carboxamide], the half-maximal effective concentration (EC50) (values given as ranges in nM) lay within 1 to 1000 nM. With `CC(C)(C)C(=O)NCc1cc(F)cc(F)c1F` [Compound S1, N-(2,3,5-trifluorobenzyl)pivalamide], the EC50 under setting [1] was 1000 to 10000 nM.

Consider `CCC(C)(C)C(=O)N(O)Cc1ccc(F)c(F)c1F` [Compound 97, N-hydroxy-2,2-dimethyl-N-(2,3,4-trifluorobenzyl)butanamide], for which, under “values given as ranges in nM”, the EC50 was 1 to 1000 nM.

Regarding `CCC(C)(C)C(=O)N(O)Cc1cc(F)c(F)cc1F` [Compound 98, N-hydroxy-2,2-dimethyl-N-(2,4,5-trifluorobenzyl)butanamide], where the note is “values given as ranges in nM”, the EC50 fell in the range of 1 to 1000 nM. On to `CCC(C)(C)C(=O)N(Cc1cc(F)c(F)cc1F)OC` [Compound 133], for which the concentration giving a half-maximal response (EC50) under setting [1] fell in the range of 1000 to 100000 nM. Same read-out and setting: under `C=CC(C)(C)C(=O)N(O)Cc1sccc1C` [Compound 145] stands 1000 to 100000 nM. Same read-out and setting: under `CCC(C)(C)C(=O)N(C)Cc1c(F)ccc(C)c1F` [Compound 50, N-(2,6-difluoro-3-methylbenzyl)-N,2,2-trimethylbutanamide] stands 1000 to 10000 nM. Same read-out and setting: as for `CCN(Cc1ccc(F)cc1F)C(=O)C(C)(C)CC` [Compound 29, N-(2,4-difluorobenzyl)-N-ethyl-2,2-dimethylbutanamide], the figure is 1000 to 10000 nM; as for `CC(C)N(C)C(=O)N(C)Cc1cc(F)cc(F)c1F` [Compound 120, isopropyl-1,3-dimethyl-3-(2,3,5-trifluorobenzyl)urea], 1000 to 10000 nM. With `CCC1CCCCN1C(=O)N(C)Cc1cc(F)cc(F)c1F` (centres unmarked) [Compound 116, 2-ethyl-N-methyl-N-(2,3,5-trifluorobenzyl)piperidine-1-carboxamide], the EC50 under setting [1] was 1000 to 100000 nM.
